From DBAASP
Converted amounts (≈) assume the structure as drawn.

Tests used:
Test in all cases: ≥ marks a high value that may be exact or a test limit, other limits are often not marked, values filed in µg/mL are converted to µM
[1] = test system: Escherichia coli TOP 10
[2] = test system: Aeromonas salmonicida
[3] = test system: Pseudomonas aeruginosa K799
[4] = test system: Vibrio anguillarum
[5] = test system: Salmonella enterica serovar typhimurium MS7953s
[6] = test system: Pseudomonas aeruginosa Z61
[7] = test system: Staphylococcus epidermidis C621
[8] = test system: Salmonella enterica subsp. enterica serovar Typhimurium ATCC 14028s
[9] = test system: Klebsiella pneumoniae WGLW2
[10] = test system: Pseudomonas aeruginosa PA14
[11] = test system: Candida albicans ATCC 10231
[12] = test system: Staphylococcus aureus ATCC 29231
[13] = test system: Kluyveromyces marxianus
[14] = test system: Pachysolen tannophilus
[15] = test system: Aspergillus niger
[16] = test system: Candida albicans
[17] = test system: Fusarium oxysporum
[18] = test system: Trichoderma harzianum
[19] = test system: Escherichia coli NCTC 10418
[20] = test system: Staphylococcus aureus NCTC 12981
[21] = test system: Staphylococcus aureus ATCC 12493
[22] = test system: Staphylococcus aureus NCTC 10788
[23] = test system: Enterococcus faecalis NCTC 12697
[24] = test system: Klebsiella pneumoniae ATCC BAA-2342
[25] = test system: Staphylococcus aureus
[26] = test system: Pseudomonas aeruginosa ATCC 9027
[27] = test system: Escherichia coli ATCC BAA-2340
[28] = test system: Klebsiella pneumoniae ATCC 43816
[29] = test system: Candida albicans NCYC 1467
[30] = test system: Pseudomonas aeruginosa ATCC 27853
[31] = test system: Escherichia coli ATCC 8739
[32] = test system: Klebsiella pneumoniae ATCC BAA-1705
[33] = test system: Staphylococcus aureus ATCC 6538
[34] = test system: Pseudomonas aeruginosa
[35] = test system: Acinetobacter baumannii LMG 01041
[36] = test system: Escherichia coli LMG 15862
[37] = test system: Klebsiella pneumoniae LMG 20218
[38] = test system: Pseudomonas aeruginosa LMG 6395
[39] = test system: Klebsiella aerogenes LMG 02094
[40] = test system: Mannheimia haemolytica 82-25

**Q.** Which MIC [1] does the source give for CC[C@H](C)[C@H](NC(=O)[C@@H](N)CCC(=O)O)C(=O)N[C@@H](CCC(=O)O)C(=O)N[C@@H](Cc1ccc(O)cc1)C(=O)NCC(=O)N[C@@H](CC(N)=O)C(=O)N1CCC[C@H]1C(=O)NCC(=O)N[C@H](C(=O)NCC(=O)N[C@H](C(=O)N[C@@H](CC(=O)O)C(=O)N[C@@H](CCCN=C(N)N)C(N)=O)[C@@H](C)O)C(C)C [EIEYGNPGVGTDR] here?
**A.** ≥ 71.1 µM

**Q.** Which MIC [2] does the source give for CC(C)C[C@H](NC(=O)[C@H](C)NC(=O)[C@H](C)NC(=O)[C@H](CCCCN)NC(=O)CNC(=O)[C@@H](NC(=O)[C@H](Cc1cnc[nH]1)NC(=O)[C@H](CCCCN)NC(=O)CNC(=O)[C@@H](NC(=O)[C@H](Cc1cnc[nH]1)NC(=O)[C@H](C)NC(=O)[C@H](C)NC(=O)[C@H](CCCCN)NC(=O)[C@H](CCCCN)NC(=O)[C@H](Cc1ccccc1)NC(=O)[C@H](Cc1ccccc1)NC(=O)[C@H](CO)NC(=O)CNC(=O)[C@H](Cc1c[nH]c2ccccc12)NC(=O)CN)C(C)C)C(C)C)C(=O)NCC(=O)N[C@@H](C)C(=O)N[C@@H](C)C(=O)N[C@@H](C)C(=O)N[C@@H](CCCN=C(N)N)C(=O)N[C@@H](CCCN=C(N)N)C(=O)N[C@@H](CCCN=C(N)N)C(=O)N[C@@H](CCCCN)C(=O)O [GWGSFFKKAAHVGKHVGKAALGAAARRRK] here?
**A.** 0.326 µM (≈ 1 µg/mL)

**Q.** What about the MIC [3] of the same molecule?
**A.** 5.22 µM (≈ 16 µg/mL)

**Q.** And the MIC [4]?
**A.** 10.4 µM (≈ 32 µg/mL)

**Q.** What about the MIC [5] of the same molecule?
**A.** 0.163 µM (≈ 0.5 µg/mL)

**Q.** What about the MIC [6] of the same molecule?
**A.** 5.22 µM (≈ 16 µg/mL)

**Q.** And the MIC [7]?
**A.** 5.22 µM (≈ 16 µg/mL)

**Q.** And the MIC [8]?
**A.** 5.22 µM (≈ 16 µg/mL)

**Q.** For CC[C@H](C)[C@H](NC(=O)[C@H](CCCCN)NC(=O)[C@H](CCCCN)NC(=O)[C@@H](N)CC(C)C)C(=O)NCC(=O)N[C@@H](CCCCN)C(=O)N[C@@H](CCCCN)C(=O)N[C@H](C(=O)N[C@@H](Cc1c[nH]c2ccccc12)C(=O)N[C@@H](CCCN=C(N)N)C(=O)N[C@H](C(=O)NCC(=O)N[C@@H](Cc1c[nH]c2ccccc12)C(=O)N[C@@H](CC(N)=O)C(=O)N[C@H](C(=O)N[C@@H](CCCN=C(N)N)C(=O)N[C@@H](CC(=O)O)C(=O)N[C@@H](C)C(=O)N[C@H](C(=O)N[C@H](C(=O)N[C@@H](CCC(N)=O)C(=O)O)[C@@H](C)CC)[C@@H](C)O)[C@@H](C)O)C(C)C)[C@@H](C)CC [LKKIGKKIWRVGWNTRDATIQ], which MIC [9] is on record?
**A.** ≥ 51 µM

**Q.** What about the MIC [10] of the same molecule?
**A.** ≥ 51 µM

**Q.** What about the MIC [11] of the same molecule?
**A.** > 51 µM

**Q.** What about the MIC [12] of the same molecule?
**A.** ≥ 51 µM

**Q.** Which MIC [13] does the source give for CC[C@H](C)[C@H](NC(=O)[C@H](CC(C)C)NC(=O)[C@@H](NC(=O)[C@@H](N)CC(=O)O)[C@@H](C)O)C(=O)NCC(=O)N[C@@H](CO)C(=O)N[C@H]1CSSC[C@@H]2NC(=O)[C@H](Cc3cnc[nH]3)NC(=O)CNC(=O)CNC(=O)[C@H](CCCCN)NC(=O)[C@H](Cc3ccc(O)cc3)NC(=O)CNC(=O)[C@H](CCCN=C(N)N)NC(=O)[C@H](CCCN=C(N)N)NC(=O)[C@H](CCCCN)NC(=O)[C@@H]3CSSC[C@@H](C(=O)N[C@@H](CCC(=O)O)C(=O)O)NC(=O)[C@H](Cc4c[nH]c5ccccc45)NC(=O)[C@H](CSSC[C@H](NC(=O)[C@H](CC(=O)O)NC(=O)[C@H](CO)NC(=O)[C@H]([C@@H](C)O)NC(=O)[C@H](Cc4ccc(O)cc4)NC(=O)[C@H](CC(N)=O)NC(=O)[C@H]([C@@H](C)O)NC(=O)[C@H](C)NC(=O)CNC(=O)[C@H](Cc4c[nH]c5ccccc45)NC(=O)[C@H](C(C)C)NC1=O)C(=O)N[C@@H](CC(N)=O)C(=O)N[C@@H](C)C(=O)N[C@@H](CCC(=O)O)C(=O)N3)NC(=O)[C@H](CC(N)=O)NC(=O)[C@H](C(C)C)NC(=O)[C@H](CC(N)=O)NC(=O)[C@H](CC(C)C)NC(=O)[C@H](Cc1ccccc1)NC(=O)[C@H](CO)NC(=O)CNC2=O [DTLIGSCVWGATNYTSDCNAECKRRGYKGGHCGSFLNVNCWCE] here?
**A.** 8.5 µM (≈ 40.1 µg/mL)

**Q.** And the MIC [14]?
**A.** 8.5 µM (≈ 40.1 µg/mL)

**Q.** What about the MIC [15] of the same molecule?
**A.** 2.1 µM (≈ 9.9 µg/mL)

**Q.** What about the MIC [16] of the same molecule?
**A.** 8.5 µM (≈ 40.1 µg/mL)

**Q.** And the MIC [17]?
**A.** 16.9 µM (≈ 79.7 µg/mL)

**Q.** And the MIC [18]?
**A.** 4.2 µM (≈ 19.8 µg/mL)

**Q.** Which results are given for NC(=O)[C@H](CCCN=C(N)N)NC(=O)[C@@H]1CCCN1C(=O)[C@@H]1CCCN1C(=O)[C@H](Cc1c[nH]c2ccccc12)NC(=O)[C@@H]1CCCN1C(=O)[C@@H](N)CCCN=C(N)N [RPWPPR]?
**A.** MIC [19]: ≥ 158 µM; MIC [20]: ≥ 158 µM

**Q.** How did the MIC [21] turn out when CC[C@H](C)[C@H](NC(=O)CNC(=O)CNC(=O)[C@H](C)NC(=O)[C@@H](NC(=O)[C@H](CCCCN)NC(=O)[C@@H]1CCCN1C(=O)[C@@H](NC(=O)[C@H](CC(C)C)NC(=O)[C@H](CO)NC(=O)[C@H](CC(C)C)NC(=O)[C@@H](N)Cc1ccccc1)[C@@H](C)CC)[C@@H](C)CC)C(=O)N[C@@H](C)C(=O)N[C@@H](C)C(=O)N[C@@H](CC(C)C)C(=O)N[C@H](C(=O)N[C@@H](CCCCN)C(=O)N[C@@H](CC(N)=O)C(=O)N[C@@H](CC(C)C)C(N)=O)C(C)C [FLSLIPKIAGGIAALVKNL] was run?
**A.** 4 µM (≈ 7.75 µg/mL)

**Q.** And the MIC [19]?
**A.** ≥ 32 µM

**Q.** What about the MIC [22] of the same molecule?
**A.** 4 µM (≈ 7.75 µg/mL)

**Q.** What about the MIC [23] of the same molecule?
**A.** ≥ 32 µM

**Q.** And the MIC [24]?
**A.** ≥ 128 µM

**Q.** What about the MIC [25] of the same molecule?
**A.** 8 µM (≈ 15.5 µg/mL)

**Q.** What about the MIC [26] of the same molecule?
**A.** 256 µM (≈ 496 µg/mL)

**Q.** What about the MIC [27] of the same molecule?
**A.** ≥ 64 µM

**Q.** And the MIC [28]?
**A.** ≥ 64 µM

**Q.** And the MIC [29]?
**A.** 8 µM (≈ 15.5 µg/mL)

**Q.** What about the MIC [30] of the same molecule?
**A.** 128 µM (≈ 248 µg/mL)

**Q.** And the MIC [31]?
**A.** ≥ 128 µM

**Q.** And the MIC [32]?
**A.** ≥ 256 µM

**Q.** What about the MIC [33] of the same molecule?
**A.** 2 µM (≈ 3.87 µg/mL)

**Q.** What about the MIC [34] of the same molecule?
**A.** > 512 µM

**Q.** For CC[C@H](C)[C@H](NC(=O)[C@H](CCCN=C(N)N)NC(=O)[C@H](CCC(N)=O)NC(=O)[C@@H](NC(=O)[C@@H](NC(=O)[C@@H](N)CCCCN)[C@@H](C)CC)C(C)C)C(=O)N[C@@H](CCCCN)C(=O)N[C@@H](CCCCN)C(=O)N[C@@H](Cc1c[nH]c2ccccc12)C(=O)N[C@@H](CC(C)C)C(=O)N[C@@H](CCCN=C(N)N)C(N)=O [KIVQRIKKWLR], which MIC [35] is on record?
**A.** ≥ 128 µM

**Q.** What about the MIC [36] of the same molecule?
**A.** 16 µM (≈ 23.5 µg/mL)

**Q.** And the MIC [37]?
**A.** ≥ 32 µM

**Q.** What about the MIC [38] of the same molecule?
**A.** 16 µM (≈ 23.5 µg/mL)

**Q.** And the MIC [39]?
**A.** ≥ 256 µM

**Q.** How did the MIC [40] turn out when NCCCC[C@H](NC(=O)[C@H](CC(=O)O)NC(=O)[C@H](CC(=O)O)NC(=O)[C@H](CC(=O)O)NC(=O)CN)C(=O)O [GDDDK] was run?
**A.** ≥ 200 µM
